Earlier results as cited in patent US20040076682A1, “Novel ophthalmic compositions” (priority 2001, published 2004).
≈ marks a conversion by molar mass, not a printed value.

Test system: Streptococcus sp
Settings: Streptococcus sp clinical isolate of ocular infections

MIC80: 12.5 µg/mL (≈ 39.1 µM)
Structure (SMILES): CCn1cc(C(=O)O)c(=O)c2cc(F)c(N3CCNCC3)cc21 [norfloxacin]
